Reference: US11285156B2, “Substituted piperazines as KRAS G12C inhibitors” (Amgen Inc., priority 2018, dated 2022)
Like-named read-outs stand apart in the source and are kept apart here.

Assays:
[1] = tested on: Phosphorylation of ERK1/2 in MIA PaCa-2 cells; test: Phospho-ERK1/2 MSD assay in MIA PaCa-2 cells; format: cell-based; settings: read-out: p-ERK IC50 (2 h, MiaPaCa-2; μM), 2 h compound treatment, MIA PaCa-2 cells, EGF stimulated
Outline: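 Phospho-ERK1/2 measured by MSD electrochemiluminescence kit in RIPA lysates of MIA PaCa-2 cells. Cells were treated with compound titrations for 2 or 4 h at 37 °C, 5% CO2, followed by a 10 min pulse of 10 ng/mL EGF.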

[2] = tested on: Phosphorylation of ERK1/2 in A549 cells; test: Phospho-ERK1/2 MSD assay in A549 cells; format: cell-based; settings: read-out: p-ERK IC50 (2 h, A549; μM), 2 h compound treatment, A549 cells, EGF stimulated
Outline: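 Phospho-ERK1/2 was quantified by MSD immunoassay in RIPA lysates of MIA PaCa-2 or A549 cells. Before lysis, cells received 10 ng/mL EGF for 10 min after 2 or 4 h exposure at 37° C. to a compound concentration series.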

[3] = biological target: GDP-bound KRAS protein (aa 1-169), containing both G12C and C118A amino acid substitutions (Homo sapiens (Human), UniProt P01116, C118A/G12C); test: Coupled nucleotide exchange assay (SOS-mediated nucleotide exchange, AlphaScreen); format: biochemical; settings: read-out: Coupled exchange IC50 (5 min; μM); 5 min compound pre-incubation
Sequence of GDP-bound KRAS protein (aa 1-169), containing both G12C and C118A amino acid substitutions (P01116 other isoform, or with tags, fused parts or gaps G12C/C118A): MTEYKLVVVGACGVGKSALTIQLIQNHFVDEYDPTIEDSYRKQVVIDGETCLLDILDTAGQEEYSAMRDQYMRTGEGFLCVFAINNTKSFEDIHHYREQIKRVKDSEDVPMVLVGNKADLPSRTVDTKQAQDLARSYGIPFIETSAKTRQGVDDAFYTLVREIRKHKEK

| SMILES | IC50 ([1]; Homo sapiens, MIA PaCa-2, 2 h) [µM] | IC50 ([2]; Homo sapiens, A549, 2 h) [µM] | IC50 [3] [µM] | IC50 [1] [µM] | IC50 [2] [µM] |
| --- | --- | --- | --- | --- | --- |
| C=CC(=O)N1C[C@H](C)N(c2nc(=O)n(-c3c(C)ccnc3C(C)C)c3nc(-c4ccc(F)cc4)c(Cl)cc23)C[C@H]1C (atropisomer, axis not shown; (M)) [Example 92-57, (M)-6-Chloro-4-[(2S,5R)-2,5-dimethyl-4-prop-2-enoyl-piperazin-1-yl]-7-(4-fluorophenyl)-1-(2-isopropyl-4-methyl-3-pyridyl)pyrido [2,3-d]pyrimidin-2-one] | 0.126 | > 7.5 | 0.126 | – | – |
| C=CC(=O)N1C[C@H](C)N(c2nc(=O)n(-c3c(C)ccnc3C(C)C)c3nc(-c4cccc(C)c4F)c(Cl)cc23)C[C@H]1C (atropisomer, axis not shown; (M)) [Example 92-58, (M)-6-Chloro-4-[(2S,5R)-2,5-dimethyl-4-prop-2-enoyl-piperazin-1-yl]-7-(2-fluoro-3-methyl-phenyl)-1-(2-isopropyl-4-methyl-3-pyridyl)pyrido [2,3-d]pyrimidin-2-one] | 0.023 | > 7.5 | 0.074 | – | – |
| C=CC(=O)N1C[C@H](C)N(c2nc(=O)n(-c3c(C)ccnc3C(C)C)c3nc(-c4cccc(F)c4C)c(Cl)cc23)C[C@H]1C (atropisomer, axis not shown; (M)) [Example 92-59, (M)-6-Chloro-4-[(2S,5R)-2,5-dimethyl-4-prop-2-enoyl-piperazin-1-yl]-7-(3-fluoro-2-methyl-phenyl)-1-(2-isopropyl-4-methyl-3-pyridyl)pyrido [2,3-d]pyrimidin-2-one] | 0.034 | > 7.5 | 0.028 | – | – |
| C=CC(=O)N1C[C@H](C)N(c2nc(=O)n(-c3c(C)ccnc3C(C)C)c3nc(-c4cc(C)ccc4F)c(Cl)cc23)C[C@H]1C (atropisomer, axis not shown; (M)) [Example 92-60, (M)-6-Chloro-4-[(2S,5R)-2,5-dimethyl-4-prop-2-enoyl-piperazin-1-yl]-7-(2-fluoro-5-methyl-phenyl)-1-(2-isopropyl-4-methyl-3 pyridyl)pyrido [2,3-d]pyrimidin-2-one] | 0.018 | > 7.5 | 0.02 | – | – |
| C=CC(=O)N1C[C@H](C)N(c2nc(=O)n(-c3c(C)ccnc3C(C)C)c3nc(-c4ccc(F)cc4F)c(Cl)cc23)C[C@H]1C (atropisomer, axis not shown; (M)) [Example 92-61, (M)-6-Chloro-7-(2,4-difluorophenyl)-4-[(2S,5R)-2,5-dimethyl-4-prop-2-enoyl-piperazin-1-yl]-1-(2-isopropyl-4-methyl-3-pyridyl)pyrido [2,3-d]pyrimidin-2-one] | 0.027 | > 7.5 | 0.008 | – | – |
| C=CC(=O)N1C[C@H](C)N(c2nc(=O)n(-c3c(C)ccnc3C(C)C)c3nc(-c4cccc(F)c4OC)c(Cl)cc23)C[C@H]1C (atropisomer, axis not shown; (M)) [Example 92-62, (M)-6-Chloro-4-[(2S,5R)-2,5-dimethyl-4-prop-2-enoyl-piperazin-1-yl]-7-(3-fluoro-2-methoxy-phenyl)-1-(2-isopropyl-4-methyl-3-pyridyl)pyrido [2,3-d]pyrimidin-2-one] | 0.075 | > 7.5 | 0.01 | – | – |
| C=CC(=O)N1C[C@H](C)N(c2nc(=O)n(-c3c(C)ccnc3C(C)C)c3nc(-c4cccc(F)c4C(F)(F)F)c(Cl)cc23)C[C@H]1C (atropisomer, axis not shown; (M)) [Example 92-63, (M)-6-Chloro-4-[(2S,5R)-2,5-dimethyl-4-prop-2-enoyl-piperazin-1-yl]-7-[3-fluoro-2-(trifluoromethyl)phenyl]-1-(2-isopropyl-4-methyl-3-pyridyl)pyrido [2,3-d]pyrimidin-2-one] | 0.052 | > 7.5 | 0.039 | – | – |
| C=CC(=O)N1C[C@H](C)N(c2nc(=O)n(-c3c(C)ccnc3C(C)C)c3nc(-c4cccc(F)c4Cl)c(Cl)cc23)C[C@H]1C (atropisomer, axis not shown; (M)) [Example 92-64, (M)-6-Chloro-7-(2-chloro-3-fluoro-phenyl)-4-[(2S,5R)-2,5-dimethyl-4-prop-2-enoyl-piperazin-1-yl]-1-(2-isopropyl-4-methyl-3-pyridyl)pyrido [2,3-d]pyrimidin-2-one] | 0.044 | > 7.5 | 0.039 | – | – |
| C=CC(=O)N1C[C@H](C)N(c2nc(=O)n(-c3c(C)ccnc3C(C)C)c3nc(-c4cc(F)ccc4F)c(Cl)cc23)C[C@H]1C (atropisomer, axis not shown; (M)) [Example 92-65, (M)-6-Chloro-7-(2,5-difluorophenyl)-4-[(2S,5R)-2,5-dimethyl-4-prop-2-enoyl-piperazin-1-yl]-1-(2-isopropyl-4-methyl-3-pyridyl)pyrido [2,3-d]pyrimidin-2-one] | 0.046 | > 7.5 | 0.066 | – | – |
| C=CC(=O)N1C[C@H](C)N(c2nc(=O)n(-c3c(C)ccnc3C(C)C)c3nc(-c4cccc(F)c4F)c(Cl)cc23)C[C@H]1C (atropisomer, axis not shown; (M)) [Example 92-66, (M)-6-Chloro-7-(2,3-difluorophenyl)-4-[(2S,5R)-2,5-dimethyl-4-prop-2-enoyl-piperazin-1-yl]-1-(2-isopropyl-4-methyl-3-pyridyl)pyrido [2,3-d]pyrimidin-2-one] | 0.033 | > 7.5 | 0.034 | – | – |
| C=CC(=O)N1C[C@H](C)N(c2nc(=O)n(-c3c(C)ccnc3C(C)C)c3nc(-c4ccccc4OC)c(Cl)cc23)C[C@H]1C (atropisomer, axis not shown; (M)) [Example 92-67, (M)-6-Chloro-4-[(2S,5R)-2,5-dimethyl-4-prop-2-enoyl-piperazin-1-yl]-1-(2-isopropyl-4-methyl-3-pyridyl)-7-(2-methoxyphenyl) pyrido[2,3-d]pyrimidin-2-one] | 0.062 | > 7.5 | 0.13 | – | – |
| C=CC(=O)N1C[C@H](C)N(c2nc(=O)n(-c3c(C)ccnc3C(C)C)c3nc(-c4sccc4C)c(Cl)cc23)C[C@H]1C (atropisomer, axis not shown; (M)) [Example 93-1, (M)-6-Chloro-4-[(2S,5R)-2,5-dimethyl-4-prop-2-enoyl-piperazin-1-yl]-1-(2-isopropyl-4-methyl-3-pyridyl)-7-(3-methyl-2-thienyl)pyrido[2,3-d]pyrimidin-2-one] | – | – | 0.055 | 0.097 | > 7.5 |
| C=CC(=O)N1C[C@H](C)N(c2nc(=O)n(-c3c(C)ccnc3C(C)C)c3nc(-c4ccccc4C(C)C)c(F)cc23)C[C@H]1C (atropisomer, axis not shown; (M)) [Example 94-1, (M)-4-[(2S,5R)-2,5-Dimethyl-4-prop-2-enoyl-piperazin-1-yl]-6-fluoro-1-(2-isopropyl-4-methyl-3-pyridyl)-7-(2-isopropylphenyl)pyrido[2,3-d]pyrimidin-2-one] | – | – | 0.077 | 0.107 | > 7.5 |
| C=CC(=O)N1C[C@H](C)N(c2nc(=O)n(-c3c(C)ccnc3C(C)C)c3nc(-c4cc(C)ccc4F)c(F)cc23)C[C@H]1C (atropisomer, axis not shown; (M)) [Example 94-4, (M)-4-[(2S,5R)-2,5-dimethyl-4-prop-2-enoyl-piperazin-1-yl]-6-fluoro-7-(2-fluoro-5-methyl-phenyl)-1-(2-isopropyl-4-methyl-3-pyridyl)pyrido [2,3-d]pyrimidin-2-one] | 0.218 | > 7.5 | 0.222 | – | – |
| C=CC(=O)N1C[C@H](C)N(c2nc(=O)n(-c3c(C)ccnc3C(C)C)c3nc(-c4cc(Cl)ccc4F)c(F)cc23)C[C@H]1C (atropisomer, axis not shown; (M)) [Example 94-5, (M)-7-(5-chloro-2-fluoro-phenyl)-4-[(2S,5R)-2,5-dimethyl-4-prop-2-enoyl-piperazin-1-yl]-6-fluoro-1-(2-isopropyl-4-methyl-3-pyridyl)pyrido [2,3-d]pyrimidin-2-one] | 0.265 | > 7.5 | 0.708 | – | – |
| C=CC(=O)N1C[C@H](C)N(c2nc(=O)n(-c3c(C)ccnc3C(C)C)c3nc(-c4ccccc4C)c(F)cc23)C[C@H]1C (atropisomer, axis not shown; (M)) [Example 94-8, (M)-4-[(2S,5R)-2,5-Dimethyl-4-prop-2-enoyl-piperazin-1-yl]-6-fluoro-1-(2-isopropyl-4-methyl-3-pyridyl)-7-(o-tolyl)pyrido[2,3-d]pyrimidin-2-one] | 0.131 | > 7.5 | 0.255 | – | – |
| C=CC(=O)N1C[C@H](C)N(c2nc(=O)n(-c3c(C)ccnc3C(C)C)c3nc(-c4c(C)cccc4F)c(F)cc23)C[C@H]1C (atropisomer, axis not shown; (M)) [Example 94-10, (M)-4-[(2S,5R)-2,5-Dimethyl-4-prop-2-enoyl-piperazin-1-yl]-6-fluoro-7-(2-fluoro-6-methyl-phenyl)-1-(2-isopropyl-4-methyl-3-pyridyl)pyrido [2,3-d]pyrimidin-2-] | 0.079 | > 7.5 | 0.137 | – | – |
